In ChEMBL document CHEMBL6134867, “Design and Synthesis of FR-β Targeting Chimeric Molecules for Reprogramming Tumor-Associated Macrophages Using 6-Substituted Pyrrolo[2,3-d]pyrimidines as Targeting Ligands” (J Med Chem, 2025):
The source made the active and inactive calls. No cut-off for these calls is given here.

Columns and labels:
[1] = Toxicity against BALB/c mouse xenografted with mouse 4T1 cells assessed as heightened inflammatory response in lung at 1 mg/kg, iv qd for 14 days by Hematoxylin-Eosin staining based analysis; type: organism-based; conditions: in vivo, 336 h, time 14 day
4T1 [2] = assay: Antitumor activity against mouse 4T1 cells xenografted in BALB/c mouse assessed as inhibition of tumor growth at 1 mg/kg, iv qd for 14 days and measured every day by digital caliper analysis; type: functional, organism-based; conditions: time 14.0 day
[3] = Toxicity against BALB/c mouse xenografted with mouse 4T1 cells assessed as pathological changes in spleen at 1 mg/kg, iv qd for 14 days by Hematoxylin-Eosin staining based analysis; type: organism-based; conditions: in vivo, 336 h, time 14 day
4T1 [4] = assay: Cytotoxicity against mouse 4T1 cells assessed as reduction in cell viability incubated for 24 hrs by CCK-8 assay; type: toxicity, cell-based; conditions: 4t1, 24 h
[5] = Toxicity against BALB/c mouse xenografted with mouse 4T1 cells assessed as pathological changes in heart at 1 mg/kg, iv qd for 14 days by Hematoxylin-Eosin staining based analysis; type: organism-based; conditions: in vivo, 336 h, time 14 day
[6] = Prodrug release assessed as IMDQ formation in presence of 10 mM GSH and measured after 1 to 8 hrs by HPLC analysis; type: ADME; conditions: time 1-8 hrs
[7] = Toxicity against BALB/c mouse xenografted with mouse 4T1 cells assessed as pathological changes in kidney at 1 mg/kg, iv qd for 14 days by Hematoxylin-Eosin staining based analysis; type: organism-based; conditions: in vivo, 336 h, time 14 day
[8] = Stability of the compound in PBS measured at 4 degC and for 15 days; type: physicochemical; conditions: time 15 day, read-out: Stability
[9] = Stability of the compound in mouse plasma at 5 uM and measured at 37 degC and for up to 12 hrs by HPLC analysis; type: ADME, cell-free; conditions: for remaining at 12 h, 5 µM: read-out: Stability
Mus musculus [10] = assay: In vivo transition from anti-inflammatory to pro-inflammatory phenotypes in BALB/c mouse xenografted with mouse 4T1 cells assessed as decrease in proportion of Ly6C+ and Ly6G+ cells within CD45+ population at 1 mg/kg, iv qd for 14 days by flow cytometry; type: functional, organism-based; conditions: time 14.0 day
HUVEC = assay: Cytotoxicity against human HUVEC cells assessed as reduction in cell viability incubated for 24 hrs by CCK-8 assay; type: toxicity, cell-based
[11] = Toxicity against BALB/c mouse xenografted with mouse 4T1 cells assessed as pathological changes in liver at 1 mg/kg, iv qd for 14 days by Hematoxylin-Eosin staining based analysis; type: organism-based; conditions: in vivo, 336 h, time 14 day
[12] = Toxicity against BALB/c mouse xenografted with mouse 4T1 cells assessed as effect on body weight at 1 mg/kg, iv qd for 14 days and measured every day; type: organism-based; conditions: in vivo, 336 h, time 14 day
[13] = Cytotoxicity against mouse BMDM cells assessed as reduction in cell viability incubated for 24 hrs by CCK-8 assay; type: toxicity, cell-based
Mus musculus [14] = assay: In vivo transition from anti-inflammatory to pro-inflammatory phenotypes in BALB/c mouse xenografted with mouse 4T1 cells assessed as upregulation in proportion of CD8+ cells at 1 mg/kg, iv qd for 14 days by flow cytometry; type: functional, organism-based; conditions: time 14.0 day
Mus musculus [15] = assay: In vivo transition from anti-inflammatory to pro-inflammatory phenotypes in BALB/c mouse xenografted with mouse 4T1 cells assessed as CD4+ cells population at 1 mg/kg, iv qd for 14 days by flow cytometry; type: functional, organism-based; conditions: time 14.0 day
BMDM [16] = assay: Induction of macrophage repolarization in FR-beta expressing IL-4 differentiated M2 phenotype mouse BMDM cells assessed as reprogramming to M1 phenotype by measuring downregulation of CD206 expression at 10 nM incubated for 24 hrs by western blot analysis; type: functional, cell-based
BMDM [17] = assay: Induction of macrophage repolarization in FR-beta expressing IL-4 differentiated M2 phenotype mouse BMDM cells assessed as reprogramming to M1 phenotype by measuring downregulation of CD206 mRNA expression at 10 nM incubated for 24 hrs by RT-qPCR analysis; type: functional, cell-based
BMDM [18] = assay: Induction of macrophage repolarization in FR-beta expressing IL-4 differentiated M2 phenotype mouse BMDM cells assessed as reprogramming to M1 phenotype by measuring upregulation of iNOS mRNA expression at 10 nM incubated for 24 hrs by RT-qPCR analysis; type: functional, cell-based
BMDM [19] = assay: Induction of macrophage repolarization in FR-beta expressing IL-4 differentiated M2 phenotype mouse BMDM cells assessed as reprogramming to M1 phenotype by measuring downregulation of Arg1 mRNA expression at 10 nM incubated for 24 hrs by RT-qPCR analysis; type: functional, cell-based
BMDM [20] = assay: Induction of macrophage repolarization in FR-beta expressing IL-4 differentiated M2 phenotype mouse BMDM cells assessed as reprogramming to M1 phenotype by measuring upregulation of iNOS expression at 10 nM incubated for 24 hrs by western blot analysis; type: functional, cell-based
BMDM [21] = assay: Induction of macrophage repolarization in FR-beta expressing IL-4 differentiated M2 phenotype mouse BMDM cells assessed as reprogramming to M1 phenotype by measuring downregulation of Arg1 expression at 10 nM incubated for 24 hrs by western blot analysis; type: functional, cell-based
BMDM [22] = assay: Induction of macrophage repolarization in FR-beta expressing IL-4 differentiated M2 phenotype mouse BMDM cells assessed as reprogramming to M1 phenotype by measuring upregulation of TLR7 expression at 10 nM incubated for 24 hrs by western blot analysis; type: functional, cell-based
BMDM [23] = assay: Induction of macrophage repolarization in FR-beta expressing IL-4 differentiated M2 phenotype mouse BMDM cells assessed as reprogramming to M1 phenotype by measuring upregulation of MyD88 expression at 10 nM incubated for 24 hrs by western blot analysis; type: functional, cell-based
BMDM [24] = assay: Induction of macrophage repolarization in FR-beta expressing IL-4 differentiated M2 phenotype mouse BMDM cells assessed as reprogramming to M1 phenotype by measuring upregulation of IL-6 level at 10 nM incubated for 24 hrs by ELISA; type: functional, cell-based
BMDM [25] = assay: Induction of macrophage repolarization in FR-beta expressing IL-4 differentiated M2 phenotype mouse BMDM cells assessed as reprogramming to M1 phenotype by measuring downregulation of IL-10 level at 10 nM incubated for 24 hrs by ELISA; type: functional, cell-based
BMDM [26] = assay: Induction of macrophage repolarization in FR-beta expressing IL-4 differentiated M2 phenotype mouse BMDM cells assessed as reprogramming to M1 phenotype by measuring downregulation of IL-10 mRNA expression at 10 nM incubated for 24 hrs by RT-qPCR analysis; type: functional, cell-based
BMDM [27] = assay: Induction of macrophage repolarization in FR-beta expressing IL-4 differentiated M2 phenotype mouse BMDM cells assessed as reprogramming to M1 phenotype by measuring upregulation of IL-6 mRNA expression at 10 nM incubated for 24 hrs by RT-qPCR analysis; type: functional, cell-based
BMDM [28] = assay: Induction of macrophage repolarization in FR-beta expressing IL-4 differentiated M2 phenotype mouse BMDM cells assessed as reprogramming to M1 phenotype by measuring TNF-alpha mRNA expression at 10 nM incubated for 24 hrs by RT-qPCR analysis; type: functional, cell-based
BMDM [29] = assay: Induction of macrophage repolarization in FR-beta expressing IL-4 differentiated M2 phenotype mouse BMDM cells assessed as reprogramming to M1 phenotype by measuring TNF-alpha level at 10 nM incubated for 24 hrs by ELISA; type: functional, cell-based

Row | Compound | Activity [1] | Activity (4T1 [2]) | Activity [3] | Activity (4T1 [4]) | Activity [5] | Drug metabolism [6] | Activity [7] | remaining at 360 h [8] [%] | Activity (Mus musculus [10]) | Activity (HUVEC) | Activity [11] | Activity [12] | Activity [13] | Activity (Mus musculus [14]) | Activity (Mus musculus [15]) | Activity (BMDM [16]) | Activity (BMDM [20]) | further results
1 | CCCCc1nc2c(N)nc3ccccc3c2n1Cc1ccc(CNC(=O)OCCSSC[C@H](NC(=O)CC[C@H](NC(=O)c2ccc(CCCCc3cc4c(=O)[nH]c(N)nc4[nH]3)s2)C(=O)O)C(=O)O)cc1 | Non-toxic | Active | Non-toxic | Non-toxic | Non-toxic | metabolite_detected | Non-toxic | > 95 | Active | Non-toxic | Non-toxic | Non-toxic | Non-toxic | Active | inactive |  |  | remaining at 12 h, 5 µM [9]: 95%
2 | CCCCc1nc2c(N)nc3ccccc3c2n1Cc1ccc(CNC(=O)OCCSSC[C@H](NC(=O)CC[C@H](NC(=O)c2ccc(NCc3cnc4nc(N)[nH]c(=O)c4n3)cc2)C(=O)O)C(=O)O)cc1 | Non-toxic | Active | Non-toxic | Non-toxic | Non-toxic | metabolite_detected | Non-toxic | < 95 | Active | Non-toxic | Non-toxic | Non-toxic | Non-toxic | Active | inactive | Active; Less Effective Than Fgt-2,4 Observed | Active; Less Effective Than Fgt-2,4 Observed | Activity (BMDM [17]): Active; Less Effective Than Fgt-2,4 Observed; Stability ([9]; 12 h, 5 µM): Unstable; Activity (BMDM [18]): Active; Less Effective Than Fgt-2,4 Observed; Activity (BMDM [19]): Active; Less Effective Than Fgt-2,4 Observed; Activity (BMDM [21]): Active; Less Effective Than Fgt-2,4 Observed
3 | Nc1nc(O)c2nc(CNc3ccc(C(=O)N[C@@H](CCC(=O)N[C@@H](CS)C(=O)O)C(=O)O)cc3)cnc2n1 |  |  |  | Non-toxic |  |  |  |  |  |  |  |  |  |  |  |  |  | 
4 | Nc1nc2[nH]c(CCCCc3ccc(C(=O)N[C@@H](CCC(=O)N[C@@H](CS)C(=O)O)C(=O)O)s3)cc2c(=O)[nH]1 |  |  |  | Non-toxic |  |  |  |  |  |  |  |  |  |  |  |  |  | 
5 | Nc1nc2[nH]c(CC(=O)NCC(=O)N[C@@H](CCC(=O)N[C@@H](CS)C(=O)O)C(=O)O)cc2c(=O)[nH]1 |  |  |  | Non-toxic |  |  |  |  |  |  |  |  |  |  |  |  |  | 
6 | Nc1nc2[nH]c(CCCCc3ccc(C(=O)N[C@@H](CCC(=O)N[C@@H](CS)C(=O)O)C(=O)O)cc3)cc2c(=O)[nH]1 |  |  |  | Non-toxic |  |  |  |  |  |  |  |  |  |  |  | inactive | inactive | Activity (BMDM [22]): inactive
7 | CCCCc1nc2c(N)nc3ccccc3c2n1Cc1ccc(CNC(=O)OCCSSC[C@H](NC(=O)CC[C@H](NC(=O)CNC(=O)Cc2cc3c(=O)[nH]c(N)nc3[nH]2)C(=O)O)C(=O)O)cc1 | Non-toxic | Active | Non-toxic | Non-toxic | Non-toxic | metabolite_detected | Non-toxic | > 95 | Active | Non-toxic | Non-toxic | Non-toxic | Non-toxic | Active | inactive | Active | Active | Activity (BMDM [23]): Active; Activity (BMDM [24]): Active; Activity (BMDM [17]): Active; remaining at 12 h, 5 µM [9]: 95%; Activity (BMDM [18]): Active; Activity (BMDM [25]): Active; Activity (BMDM [26]): Active; Activity (BMDM [19]): Active; Activity (BMDM [27]): Active; Activity (BMDM [28]): inactive; Activity (BMDM [29]): inactive; Activity (BMDM [21]): Active
